Here are results for ten compounds from US6489315B1, “Cyclic compounds, their production and use” (Takeda Chemical Industries, Ltd., priority 1995, dated 2002).

In general, melting point refers to the temperature, or range, at which the solid turns liquid.

In turn, `COc1ccc(CN2CCOc3nccc(-c4ccccc4)c3C2=O)cc1OC` [Example 66, 4-(3,4-Dimethoxybenzyl)-2,3,4,5-tetrahydro-5-oxo-6-phenylpyrido[3,2-f][1,4]oxazepine] registered a melting point of 175 to 176 °C.

`O=C1c2c(-c3ccccc3)ccnc2OCCN1Cc1ccccc1` [Example 67, 4-Benzyl-2,3,4,5-tetrahydro-5-oxo-6-phenylpyrido[3,2-f][1,4]oxazepine] gave a melting point of 209 to 211 °C. `C[C@@H]1COc2nccc(-c3ccccc3)c2C(=O)N(Cc2ccccc2)C1` [Example 69, (S)-5-Benzyl-2,3,4,5-tetrahydro-3-methyl-6-oxo-7-phenyl-6H-pyrido[2,3-b][1,5]oxazocine]: the melting point was in the range of 139 to 141 °C.

As to `C[C@H]1COc2nccc(-c3ccccc3)c2C(=O)N(Cc2ccccc2)C1` [Example 70, (R)-5-Benzyl-2,3,4,5-tetrahydro-3-methyl-6-oxo-7-phenyl-6H-pyrido[2,3-b][1,5]oxazocine], the melting point lay in the range of 139 to 140 °C. Regarding `C[C@@H]1COc2nccc(-c3ccccc3)c2C(=O)N(Cc2cc(C(F)(F)F)cc(C(F)(F)F)c2)C1` [Example 71, (S)-5-[3,5-Bis(trifluoromethyl)benzyl]-2,3,4,5-tetrahydro-3-methyl-6-oxo-7-phenyl-6H-pyrido[2,3-b][1,5]oxazocine], the melting point fell in the range of 142 to 143 °C. `C[C@H]1COc2nccc(-c3ccccc3)c2C(=O)N(Cc2cc(C(F)(F)F)cc(C(F)(F)F)c2)C1` [Example 72, (R)-5-[3,5-Bis(trifluoromethyl)benzyl]-2,3,4,5-tetrahydro-3-methyl-6-oxo-7-phenyl-6H-pyrido[2,3-b][1,5]oxazocine] gave a melting point of 142 to 143 °C.

Regarding `Cc1ccc(-c2ccnc3c2C(=O)N(Cc2ccccc2)CCO3)cc1` [Example 79, 4-Benzyl-2,3,4,5-tetrahydro-5-oxo-6-(4-methylphenyl)pyrido(3,2-f][1,4]oxazepine], the melting point lay within 203 to 204 °C. As to `Cc1ccc(-c2ccnc3c2C(=O)N(Cc2cc(C(F)(F)F)cc(C(F)(F)F)c2)CCO3)cc1` [Example 80, 4-[3,5-Bis(trifluoromethyl)benzyl]2,3,4,5-tetrahydro-5-oxo-6-(4-methylphenyl)pyrido[3,2-f][1,4]oxazepine], the melting point was in the range of 212 to 213 °C. `Cc1ccc(-c2ccnc3c2C(=O)N(Cc2ccccc2)C[C@H](C)CO3)cc1` [Example 81, (S)-5-Benzyl-2,3,4,5-tetrahydro-3-methyl-7-(4-methylphenyl)-6-oxo-6H-pyrido[2,3-b][1,5]oxazocine] registered a melting point of 148 to 149 °C. For `Cc1ccc(-c2ccnc3c2C(=O)N(Cc2cc(C(F)(F)F)cc(C(F)(F)F)c2)C[C@H](C)CO3)cc1` [Example 82, (S)-5-[3,5-Bis(trifluoromethyl)benzyl]2,3,4,5-tetrahydro-3-methyl-7-(4-methylphenyl)-6-oxo-6H-pyrido[2,3-b][1,5]oxazocine] the value was 159 to 160 °C.
